Data taken from patent US20210324379A1 (priority 2018, published 2021).

How the values were obtained:
HIV protease [1] = molecular target: T1, HIV protease (Human immunodeficiency virus type 1 group M subtype B, UniProt P03366); format: cell-based; conditions: control cells within ALS mixed pool screen
Description: Ten disease models were probed as a mixed pool across a set of 22 small molecules. […] In these experiments cells containing HIV protease, DNAseI and mCherry served as controls.
Ten ALS models were probed as a mixed pool across a set of 22 small molecules. […] In these experiments, cells containing HIV protease and DNaseI served as positive controls, and cells containing mCherry served as negative controls.

HIV protease [2] = molecular target: T1, HIV protease; format: cell-based; conditions: for rescue in 3Δ cells compared to wild type cells: Δpdr1 Δpdr3 Δsnq2 (3Δ) vs WT yeast, SC-ura galactose plates with indicated amount of inhibitor (FIG. 9)
Experimental: FIG. 5: Spot assays of Δpdr1 Δpdr3 Δsnq2 yeast expressing pAG426-GAL empty vector or pAG426-GAL-HIV protease. Strains were grown to saturation in SC-ura glucose media and serial dilutions (10-fold) of yeast were plated on SC-ura glucose or SC-ura galactose plates with or without 5 μM lopinavir added.
Cells expressing pAG426-GAL-HIV vectors were transformed into either wild type (WT) or Δpdr1 Δpdr3 Δsnq2 (3Δ) yeast which show a reduced ability to export exogenous small molecules from the cell. Cells were then grown overnight in SC-ura glucose media and spotted at 10-fold serial dilution onto SC-ura galactose plates containing the indicated amount of HIV protease inhibitor (Lopinavir or Saquinavir).

ALS models = assay: Pooled DNA barcoded drug screen of ALS models against 22 small molecules (FIG. 14/18); format: cell-based, yeast; conditions: ten ALS models as mixed pool
Experimental: Y axis represents drugs screened at 10 uM. X axis represents protein modeled and which cell line. WT=Natural expression of drug transporters.

OPTN = molecular target: T2, OPTN (Homo sapiens, UniProt Q96CV9); assay: Manual spot assay of cultures plated in 5-fold dilutions (FIG. 12B); format: cell-based; conditions: consecutive 5-fold dilutions
T2 construct: expressed in transfected cells; host or cells: Saccharomyces cerevisiae, galactose-inducible expression
T2 sequence (Q96CV9 whole entry): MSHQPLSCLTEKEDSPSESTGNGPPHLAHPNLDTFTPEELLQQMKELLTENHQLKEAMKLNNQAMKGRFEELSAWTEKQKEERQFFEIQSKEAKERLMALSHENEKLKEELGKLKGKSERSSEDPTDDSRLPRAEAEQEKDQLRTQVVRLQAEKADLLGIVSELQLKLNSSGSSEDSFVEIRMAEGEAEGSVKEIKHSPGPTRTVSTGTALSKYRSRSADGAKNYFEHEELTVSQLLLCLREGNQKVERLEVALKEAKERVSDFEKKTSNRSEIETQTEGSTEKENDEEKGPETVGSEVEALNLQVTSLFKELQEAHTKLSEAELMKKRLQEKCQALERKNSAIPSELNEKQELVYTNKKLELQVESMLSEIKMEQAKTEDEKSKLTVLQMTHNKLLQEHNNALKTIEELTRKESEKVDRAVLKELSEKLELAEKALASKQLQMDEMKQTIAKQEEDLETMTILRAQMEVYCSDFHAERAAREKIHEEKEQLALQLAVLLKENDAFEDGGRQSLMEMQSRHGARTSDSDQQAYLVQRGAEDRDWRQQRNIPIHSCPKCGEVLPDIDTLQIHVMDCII
Experimental: (§1) Y axis represents drugs screened at 10 uM. X axis represents protein modeled and which cell line. WT=Natural expression of drug transporters. KO=No expression of multidrug transporters PDR1 and PDR3.
(§2) In addition, the presently disclosed screening methods were also applied towards an entirely orthogonal set of proteins. Aggregation-prone proteins are prevalent in numerous eukaryotic life forms and are implicated in a wide range of neurodegenerative diseases. […] In a drug screen of aggregation-prone proteins against 23 drugs, two significant interactions were identified (see FIG. 12A).

TAF15 = molecular target: T3, TAF15 (Homo sapiens, UniProt Q92804); assay: as above; format: cell-based; conditions: consecutive 5-fold dilutions
T3 construct: expressed in transfected cells; host or cells: Saccharomyces cerevisiae, galactose-inducible expression
T3 sequence (Q92804 whole entry): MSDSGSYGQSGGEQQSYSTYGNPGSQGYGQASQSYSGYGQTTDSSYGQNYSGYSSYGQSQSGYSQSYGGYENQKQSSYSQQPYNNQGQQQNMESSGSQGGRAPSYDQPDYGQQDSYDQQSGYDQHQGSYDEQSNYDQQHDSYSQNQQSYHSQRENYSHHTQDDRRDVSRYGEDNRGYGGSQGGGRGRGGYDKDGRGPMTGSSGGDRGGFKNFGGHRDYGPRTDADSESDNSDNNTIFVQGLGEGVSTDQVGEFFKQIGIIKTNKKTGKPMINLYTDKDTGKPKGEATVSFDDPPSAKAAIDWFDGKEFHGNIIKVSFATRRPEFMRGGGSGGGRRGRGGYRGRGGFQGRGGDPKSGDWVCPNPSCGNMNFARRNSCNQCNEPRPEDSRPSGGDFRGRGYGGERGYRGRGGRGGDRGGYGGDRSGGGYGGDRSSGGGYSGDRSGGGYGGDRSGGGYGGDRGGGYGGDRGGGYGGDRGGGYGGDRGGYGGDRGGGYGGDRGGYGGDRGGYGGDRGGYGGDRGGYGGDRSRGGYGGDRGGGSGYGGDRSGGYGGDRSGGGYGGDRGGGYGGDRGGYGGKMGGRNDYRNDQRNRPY
Experimental: as §1, §2

mcherry = assay: as above; format: cell-based; conditions: consecutive 5-fold dilutions
Experimental: as §1

HIV protease [3] = molecular target: T1, HIV protease; format: cell-based; conditions: drugs screened at 10 μM; MAGeCK analysis; WT and KO cells
Experimental: (§3) Implementation of drug screening platform for proteases of viral or bacterial origin. Y axis represents drugs screened at 10 uM. X axis represents protein modeled and which cell line. WT=Natural expression of drug transporters. KO=No expression of PDR1, PDR3 and SNQ2.
(§4) All drugs were screened at a concentration of 10 μM. Barcoded cells expressing various protein drug targets were grown up individually on agar plates containing SC-ura-leu glucose. These strains were then inoculated into SC-ura-leu with glucose liquid culture media and after overnight growth were mixed together in equal amounts to generate the DNA barcoded library. The DNA barcoded library was then inoculated into SC-ura-leu with galactose liquid culture media with and without small molecule compounds.
(§5) Amplicons for NGS were generated through a two-step PCR protocol. Barcode sequences were amplified with Taq polymerase from genomic DNA preparations with primers anchored in constant regions of the 415-Kan-BC plasmid.

[4] = tested on: protease and kinase expressing cells; assay: Mixed pool barcoded drug screen of protease and kinase expressing yeast (Example 4, FIG. 23, 25); format: cell-based; conditions: FIG. 25A/25C
Description: FIG. 23A-FIG. 23C: Modulation of multidrug exporters enables the testing of multiple drug concentrations in parallel. FIG. 23A: Cells expressing wild type levels of multidrug exporters capture compound known to inhibit HIV protease activity. FIG. 23B: Similar to FIG. 23A, except cells are deficient in the expression of several multidrug exporters. A greater number of previously identified protease and kinase inhibitors are identified when using the drug exporter deficient background. FIG. 23C: The average degree of rescue, measured by the growth recovery of a specific yeast strain expressing a toxic protein, is higher in the knockout background as a result of higher intracellular drug concentrations. […] Furthermore, all of the hits shown are previously validated drug-target interactions. Each of the protein targets of interest expressed in the yeast cells is listed on the x-axis. […] FDR=false discovery rate, and is in relation to enrichment. […]
A single drug screen was performed on a mixed pool of yeast cells harboring various target proteins in order to identify compounds that interfere with each of the tested protein's function. […] In order to test multiple protein targets at a time, a unique DNA barcode was added to each yeast cell, such that when read using next generation sequencing, its abundance within a mixed pool can be quantified. […]

wimpy yeast = assay: Off-target toxicity detection with barcoded wimpy yeast (FIG. 25B, 25D); format: cell-based; conditions: mixed pool
Description: FIG. 25A-FIG. 25D: Wimpy Yeast allow for detection of drugs causing off-target toxicity in barcoded yeast pools. […] FIG. 25C and FIG. 25D: For a subset of drugs with known specific rescue of various proteases and kinases, the present screen is able to capture these effects, and a corresponding decrease in growth of any of the tested wimpy yeast was not observed. For all figures each of the protein targets of interest expressed in the yeast cells or the genes knocked out of their genome is listed on the x-axis. […] FDR=false discovery rate, FDR for FIG. 25A and FIG. 25C are in relation to enrichment while FIG. 25B and FIG. 25D are in relation to depletion.
To detect drugs that have additional pleotropic effects, which may confound the interpretation by appearing to rescue specific models, but in fact was a result of off-target effects rather than on-target enzymatic inhibition, a series of “wimpy” yeast were developed that were engineered to be sensitive to a wide variety of off-target drug toxicities (i.e., perturbations to various biological pathways). These wimpy yeast strains are engineered by using genetic mutation to selectively render the cells hypersensitive to perturbations to various core cellular pathways. […]

EYFP = format: cell-based; conditions: drugs screened at 10 μM; MAGeCK analysis
Experimental: as §3, §4, §5

CC(C)CN(C[C@@H](O)[C@H](Cc1ccccc1)NC(=O)O[C@H]1CO[C@H]2OCC[C@H]21)S(=O)(=O)c1ccc(N)cc1 [Darunavir]
rescue of growth for cells expressing HIV protease (HIV protease [1]): expected rescue of growth

Cc1cccc(C)c1OCC(=O)N[C@@H](Cc1ccccc1)[C@@H](O)C[C@H](Cc1ccccc1)NC(=O)[C@H](C(C)C)N1CCCNC1=O [Lopinavir]
rescue in 3Δ cells compared to wild type cells (HIV protease [2]): significant increases in rescue | mitigation of toxicity of yeast expressing HIV protease (HIV protease [2]; Δpdr1 Δpdr3 Δsnq2 yeast, SC-ura galactose plates, 5 μM lopinavir (FIG. 5)): toxicity can be mitigated

Nc1nc2ccc(OC(F)(F)F)cc2s1 [Riluzole]
hit among >200 tested ALS gene-drug interactions (ALS models): potential hits | growth of OPTN expressing cells in the presence of drug (OPTN): slight growth improvement | growth of TAF15 expressing cells in the presence of drug (TAF15): decreased growth | growth of mcherry expressing cells in the presence of drug (mcherry): decreased growth

CC(C)(C)NC(=O)[C@@H]1C[C@@H]2CCCC[C@@H]2CN1C[C@@H](O)[C@H](Cc1ccccc1)NC(=O)[C@H](CC(N)=O)NC(=O)c1ccc2ccccc2n1 [Saquinavir]
rescue in 3Δ cells compared to wild type cells (HIV protease [2]): significant increases in rescue

COC(=O)N[C@H](C(=O)N[C@@H](Cc1ccccc1)[C@@H](O)CN(Cc1ccc(-c2ccccn2)cc1)NC(=O)[C@@H](NC(=O)OC)C(C)(C)C)C(C)(C)C [atazanavir]
barcode enrichment / protein-drug interaction for cells expressing HIV protease (HIV protease [3]): protein-drug interactions

CC(=O)[C@]1(O)Cc2c(O)c3c(c(O)c2[C@@H](O[C@H]2C[C@H](N)[C@H](O)[C@H](C)O2)C1)C(=O)c1ccccc1C3=O [idarubicin]
rescue of protease and kinase expressing cells (barcode enrichment) [4]: significant rescue | growth of the wimpy yeast models (barcode depletion) (wimpy yeast): decrease in the growth

CCCC(CCC)C(=O)O [valproic acid]
non-specific drug interaction with control-expressing cells (EYFP): non-specific drug interactions
